Measurements published in publication PMC9549809, “In vivo behavior of [^64Cu]NOTA-terpyridine platinum, a novel chemo-radio-theranostic agent for imaging, and therapy of colorectal cancer” (Frontiers in Medicine, 2022).
Where two headings read alike, the source gives them in different places.

Legend:
tumor = system: tumor; design: method as in PMID 24337603; conditions: cited from earlier work
HCT116 cells = system: HCT116 cells; design: method as in PMID 34578470; conditions: cited from earlier work
HCT116 tumor [1] = assay: Oxaliplatin in the same HCT116 mouse model (previous study); type: in vivo, nude mice
plasma protein = conditions: 24 h; cited from earlier work
HCT116 tumor [2] = conditions: cited from earlier work

| Structure (SMILES) | tumor uptake (tumor; 15 min post-injection) [%ID/g] | tumor uptake (tumor; 2 h post-injection) [%ID/g] | tumor uptake (tumor; 16 h) [%ID/g] | nuclear accumulation relative to ^64Cu-NOTA-C3-TP (HCT116 cells) | times more platinum drug in the tumor than with [^64Cu]NOTA-C3-TP (HCT116 tumor [1]; 48 h) [times] | plasma concentration, times higher than [^64Cu]NOTA-C3-TP (HCT116 tumor [1]; 48 h post-injection, injected dose 1,250 times higher) | bound to plasma protein (plasma protein) [%] | quantity measured in the tumor (HCT116 tumor [2]; 10 mg/kg (25 nmol/g mouse), 48 h post-injection) [nmol/g] | quantity in tumor as % of the injected dose (HCT116 tumor [2]; 10 mg/kg, 48 h post-injection) [%] | concentration in the tumor (HCT116 tumor [2]; 48 h post-injection) | EF, oxaliplatin plus 15 Gy external beam vs oxaliplatin alone (TGD) (HCT116 tumor [2]; same mouse model, irradiated 48 h post-injection) |
| --- | --- | --- | --- | --- | --- | --- | --- | --- | --- | --- | --- |
| CC(=O)[O-].CC(=O)[O-].[64Cu+2] [^64Cu(OAc)2] | 1.28 ± 0.13 | 2.76 ± 0.63 | 1.28 ± 0.07 | significantly lower |  |  |  |  |  |  |  |
| O=C1[O][Pt]2([NH][C@@H]3CCCC[C@H]3[NH]2)[O]C1=O [oxaliplatin] |  |  |  |  | 333 | about 6 times | 98 | 0.3 | 1.2 | 0.12 μg/g of tumor | 5.18 |
